In patent US11384101B2, “Oral care compositions” (priority 2017, dated 2022):
Read-outs that look alike come from different tables or passages of the source.

Columns and labels:
oral bacteria = assay: Alamar Blue assay of antibacterial efficacy in the presence of SLS; assay type: cell-based, oral bacteria from human saliva; settings: 1 hour after addition of dye; for presence or absence of live bacteria (indicated by color): Alamar Blue assay in the presence of SLS; for Color of Solution: Alamar Blue, 10 mg active + 20 mg of 30 weight % SLS solution + 5 ml oral bacteria solution, 37° C., blue to red indicates live bacteria
Experimental: Table 1 describes the results of an assay evaluating the antibacterial efficacy of an exemplary CPC-ZnCl2 complex of the present invention, in the presence of an anionic surfactant. […] A negative control was also prepared adding 20 mg (+/− 0.9 mg) of the 30 weight % SLS aqueous solution and 5 ml of the prepared oral bacteria solution to deionized water instead of the antibacterial ingredient. The samples were then placed in a 37° C. oven and shaken at 100 RPM for 30 minutes. 200 μL of Alamar Blue dye was then added to each sample and placed back in the 37° C. oven and shaken at 100 RPM. The samples were then monitored every 30 minutes, with the results 1 hour after addition of the dye recorded in Table 1.

[1] = deionized water, physiological temperature (36-37° C.)
[2] = deionized water, room temperature (23-24° C.)
[3] = deionized water, room temperature (23-24° C.), even after 24 hours of aging

| SMILES | presence or absence of live bacteria (indicated by color) (oral bacteria) | Color of Solution (oral bacteria) | solubility of 1.0 weight % aqueous solution [1] | solubility of 10 weight % aqueous solution [1] | solubility of 0.1 weight % aqueous solution [2] | solubility of 0.5 weight % aqueous solution [2] | solubility of 1.0 weight % aqueous solution [3] | solubility of 10.0 weight % aqueous solution [3] | reduction in solubility compared to the CPC and ZnCl2 reactants separately (water) |
| --- | --- | --- | --- | --- | --- | --- | --- | --- | --- |
| [Cl-].[Cl-].[Zn+2] [ZnCl2, zinc chloride] | presence of live bacteria | Purple |  |  |  |  |  |  |  |
| CCCCCCCCCCCCCCCC[n+]1ccccc1 [CPC, Cetylpyridinium chloride] | presence of live bacteria | Pink |  |  |  |  |  |  |  |
| CCCCCCCCCCCCCCCC[n+]1ccccc1.CCCCCCCCCCCCCCCC[n+]1ccccc1.[Cl][Zn-2]([Cl])([Cl])[Cl] [CPC-ZnCl2 complex, [(C21H38N)2][ZnCl4]] | absence of live bacteria | Blue | soluble | not fully soluble | soluble | soluble | undissolved | undissolved | ≥ 25 fold |
